# Laboratory results: patent US11399455B1, “Cast pellets for planting seeds” (Ball Horticultural Company, priority 2010, dated 2022)
# Legend:
# [1] = test system: Impatiens Dazzler White seeds; assay: Growth regulator in casting: germination and plant height; assay type: in vivo; settings: count date 11; for Germ (%): 25° C.
# Description: (§1) A single seed was placed in every mold cavity of a mold containing 108 cavities of dimensions 0.25 inch (6.4 mm) in length by 0.125 inch (3.2 mm) in width and 0.125 inch (3.2 mm) in depth. The following growth regulator concentrations were applied to seed via the casting method: 2 ppm, 4 ppm, and 8 ppm. PEG 4000 (100 g) was weighed out and put into a beaker. This was done four times. Each beaker with the PEG 4000 was heated to 111° F. until the PEG 4000 completely melted. The growth regulator concentrations were made by dissolving a given weight of the plant grown retardant ancymidol (α-cyclopropyl-α-(p-methoxyphenyl)-5-pyrimidinemethanol; A-REST) powder into 1 ml of acetone, as follows: 6.4 mg A-REST into 1 ml of acetone for 2 ppm; 12.8 mg A-REST into 1 ml of acetone for 4 ppm; and 25.6 mg A-REST into 1 ml acetone for 8 ppm. Once dissolved, the specified concentrations of A-REST were added to the beakers with the melted PEG and mixed on the heated stir plate until well blended; 65 μl was pipetted into the cavities that contained the seeds. Once the entire mold was filled it was set aside to cool. […] The castings were then removed from the mold.
# (§2) The 108 castings (seed plus PEG 4000) containing the A-REST concentrations, along with a cast only (no added A-REST) and a raw control, were sown in a plug tray to evaluate germination. Seeds were sown at 25° C. The plug trays were run through a watering tunnel and then put into a Stage 1 mist chamber. Upon radical emergence, the plugs were placed in a Stage 2 chamber. The amount of time in Stage 1 and Stage 2 was dependent on the crop.
# (§3) Plant height was measured and recorded on the same day seed germination was recorded.
# [2] = test system: Marigolds African Marvel Orange seeds; assay: as above; assay type: in vivo; settings: count date 10; for Germ (%): 25° C.
# Description: as §1, §2, §3
structure (smiles),measurement,setting,value
"COc1ccc(C(O)(c2cncnc2)C2CC2)cc1 (stereo not drawn) [A-REST, α-cyclopropyl-α-(p-methoxyphenyl)-5-pyrimidinemethanol]",Germ (%),[1]; 2 ppm in PEG 4000 casting,96%
same,Ave. Height (mm),[1]; 2 ppm in PEG 4000 casting,13 mm
same,Germ (%),[1]; 4 ppm in PEG 4000 casting,94%
same,Ave. Height (mm),[1]; 4 ppm in PEG 4000 casting,11 mm
same,Germ (%),[1]; 8 ppm in PEG 4000 casting,99%
same,Ave. Height (mm),[1]; 8 ppm in PEG 4000 casting,9 mm
same,Germ (%),[2]; 2 ppm in PEG 4000 casting,98%
same,Ave. Height (mm),[2]; 2 ppm in PEG 4000 casting,12 mm
same,Germ (%),[2]; 4 ppm in PEG 4000 casting,87%
same,Ave. Height (mm),[2]; 4 ppm in PEG 4000 casting,12 mm
same,Germ (%),[2]; 8 ppm in PEG 4000 casting,82%
same,Ave. Height (mm),[2]; 8 ppm in PEG 4000 casting,12 mm
